Source: patent US12378221B2, “Salts of obicetrapib and processes for their manufacture and intermediates thereof” (NewAmsterdam Pharma B.V., priority 2022, dated 2025)
Where a name gives a salt, the structure may show the parent alone.

Tests used:
[1] = Physical stability at 70° C./75% relative humidity, by XRPD; type: physicochemical
From the text: FIG. 6 is a plot of x-ray powder diffraction pattern taken of crystalline obicetrapib hemicalcium, and FIG. 7 is a plot of x-ray powder diffraction patterns taken of crystalline obicetrapib hemicalcium under stress conditions. In FIG. 7, there are four diffraction patterns shown based on stability study set forth in Example 27. Pattern 1 is an x-ray powder diffraction pattern of a sample of amorphous obicetrapib hemicalcium. Pattern 2 is the x-ray powder diffraction pattern of a sample of crystalline obicetrapib hemicalcium. In pattern 3, the sample of crystalline obicetrapib hemicalcium was exposed to 70° C. at 75% relative humidity for one day. […] was taken before the sample was placed on stability.
XRPD was performed with Panalytical X'Pert^3 Powder diffractometer using an incident beam of Cu radiation produced using an Empyran tube, fine focused source, on a silicon zero-background holder. […] Approximately 5 to 10 mg of sample was placed on a silicon zero-background holder and flattened manually using an aluminum spatula to minimize difference in the overall sample height. The holder was then loaded on the instrument for analysis. The XRPD parameters used are listed in Table 10.
Stability study was conducted on crystalline and amorphous forms of obicetrapib at 70° C./75% relative humidity (RH). The solids were placed into a 4.0 ml glass vial without caps (open condition) and stored at 70° C./75% RH. […] The solids were analyzed by XRPD for physical stability and by HPLC for chemical purity. The sample collected at each time point was dissolved in methanol before HPLC analysis. In order to minimize the effect of potential analyte adsorption on the filter, the initial 0.5 mL of supernatant passing through the filter was discarded prior to collecting sample for HPLC analysis. Purity for each sample was determined based on peak area percent and compared to the sample at T=0.

[2] = molecular target: T1, Cholesterol Ester Transfer Protein (CETP) (Homo sapiens, UniProt P11597); conditions: repeated daily dosages (once a day) as low as 2.5 mg; cited from earlier work
T1 construct: CETP is a plasma protein secreted primarily by liver and adipose tissue; host or cells: endogenous plasma CETP of dosed clinical-study subjects
T1 sequence (P11597 18-493): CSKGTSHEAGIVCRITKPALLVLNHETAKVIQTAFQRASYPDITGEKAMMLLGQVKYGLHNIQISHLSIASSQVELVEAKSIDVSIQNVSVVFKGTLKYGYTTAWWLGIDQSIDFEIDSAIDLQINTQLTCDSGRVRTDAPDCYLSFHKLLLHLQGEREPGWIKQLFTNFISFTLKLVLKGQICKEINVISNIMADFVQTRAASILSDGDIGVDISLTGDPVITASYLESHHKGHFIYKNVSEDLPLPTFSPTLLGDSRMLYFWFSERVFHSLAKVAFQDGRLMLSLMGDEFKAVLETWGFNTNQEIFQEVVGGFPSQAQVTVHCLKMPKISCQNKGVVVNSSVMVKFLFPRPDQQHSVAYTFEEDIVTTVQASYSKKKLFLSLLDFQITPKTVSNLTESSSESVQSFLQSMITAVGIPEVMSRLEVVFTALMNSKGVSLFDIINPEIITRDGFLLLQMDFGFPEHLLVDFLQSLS

[3] = clinical studies; cited from earlier work
[4] = Solubility in water at 20° C.; type: physicochemical
From the text: Solubility is especially challenging with obicetrapib. […] It would be desirable to have a solid form of obicetrapib that would deliver a larger amount of obicetrapib.

[5] = Moisture uptake / hygroscopicity; type: physicochemical
From the text: When exposed to relative humidities approaching 90%, moisture uptake has been measured to be typically less than about 5% for example. […] Other drawbacks commonly associated with manufacturing and using amorphous materials are similarly not present. For example, amorphous materials are often challenging to make chemically pure.

[6] = Loss of crystallinity on drying, by XRPD (FIG. 18); type: physicochemical; conditions: 48 hours at 55° C. at a pressure of 2 mbar
Procedure: Upon stress, crystalline obicetrapib HCl loses its crystallinity. In FIG. 18, pattern 2 reflects crystalline obicetrapib HCl subject to a mild drying treatment whereby surface solvent was removed and it can be seen that this compound is crystalline. By comparison, the sample whose x-ray powder diffraction was measured in pattern 1 was subject to a stronger drying treatment at 48 hours at 55° C. at a pressure of 2 mbar. […] The amorphous pattern, therefore, represents HCl obicetrapib which is not crystalline obicetrapib. It may be obicetrapib, but is believed to have HCl associated with the obicetrapib as a solvate and thus is HCl obicetrapib, but with a lower chloride content than typically found in the ranges found for crystalline obicetrapib HCl. In some embodiments, that chloride content is less than 0.1% by weight such as between about 0.01% and 0.1% by weight.
Diffraction patterns were measured using a Thermo Fisher Scientific ARL Equinox 1000 powder diffractometer. The diffractometer is equipped with a copper source and a germanium (111) monochromator providing monochromatic Cu Kα1 radiation, and a position sensitive gas-ionization detector.
Samples were measured in reflection mode using an A1 sample holder without any further preparation (i.e., grinding). […]

## CCOC(=O)N1c2ccc(C(F)(F)F)cc2[C@@H](N(Cc2cc(C(F)(F)F)cc(C(F)(F)F)c2)c2ncc(OCCCC(=O)O)cn2)C[C@H]1CC [Amorphous obicetrapib hemicalcium]
[1]; 7 days, open vial
  physical stability of solid form (XRPD): remained amorphous
[1]; 14 days
  physical stability of solid form (XRPD): remained amorphous

## CCOC(=O)N1c2ccc(C(F)(F)F)cc2[C@@H](N(Cc2cc(C(F)(F)F)cc(C(F)(F)F)c2)c2ncc(OCCCC(=O)[O-])cn2)C[C@H]1CC.CCOC(=O)N1c2ccc(C(F)(F)F)cc2[C@@H](N(Cc2cc(C(F)(F)F)cc(C(F)(F)F)c2)c2ncc(OCCCC(=O)[O-])cn2)C[C@H]1CC.[Ca+2] [Crystalline obicetrapib hemicalcium, reference compound]
[1]; 7 days, open vial
  physical stability of solid form (XRPD): the result remains the same
[1]; one day, open vial
  physical stability of solid form (XRPD): near total loss of crystallinity

## CCOC(=O)N1c2ccc(C(F)(F)F)cc2[C@@H](N(Cc2cc(C(F)(F)F)cc(C(F)(F)F)c2)c2ncc(OCCCC(=O)O)cn2)C[C@H]1CC [obicetrapib, (2R,4S)-4-{[3,5 bis(trifluoromethyl)benzyl]-[5-(3-carboxypropoxy)pyrimidin-2-yl]amino}-2-ethyl-6-trifluoromethyl-3,4-dihydro-2H-quinoline-1-carboxylic acid ethyl ester]
[2]
  CETP inhibition: near complete CETP inhibition
[3]
  serious side effects: does not lead to serious side effects
[4]
  solubility in water: less than 0.1 mg/mL

## CCOC(=O)N1c2ccc(C(F)(F)F)cc2[C@@H](N(Cc2cc(C(F)(F)F)cc(C(F)(F)F)c2)c2ncc(OCCCC(=O)O)cn2)C[C@H]1CC [crystalline obicetrapib HCl, (2R,4S)-4-{[3,5-bis(trifluoromethyl)benzyl]-[5-(3-carboxypropoxy)pyrimidin-2-yl]amino}-2-ethyl-6-trifluoromethyl-3,4-dihydro-2H-quinoline-1-carboxylic acid ethyl ester hydrochloride]
[5]
  hygroscopicity: hygroscopic
[6]
  solid form after drying (XRPD): changed the material from crystalline to amorphous
